This assay deals with T1, human PDE2A1 (Homo sapiens, UniProt O00408).
T1 construct: GST; purchased BPS Bioscience (San Diego, Calif.) 60020; host or cells: insect cells
Put plainly: IMAP FP PDE selectivity panel, human PDE2A1. In kind it is biochemical. The note with it: Lab B; read-out: Human PDE2 Ki (nM) Lab B. The gist of the method: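 IMAP FP read-out, run at room temperature in parallel with PDE1–11: enzyme at 20% substrate conversion, 50 nM FAM-cAMP containing 1000 nM cGMP, Tris pH 7.2/MgCl2/DTT buffer. Compounds as ten 3-fold dilutions. Reaction 60 min, stopped with binding reagent for 1 h before polarization measurement.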

Some results are limits rather than exact numbers.

T1 sequence (O00408 1-920 isoform O00408-2): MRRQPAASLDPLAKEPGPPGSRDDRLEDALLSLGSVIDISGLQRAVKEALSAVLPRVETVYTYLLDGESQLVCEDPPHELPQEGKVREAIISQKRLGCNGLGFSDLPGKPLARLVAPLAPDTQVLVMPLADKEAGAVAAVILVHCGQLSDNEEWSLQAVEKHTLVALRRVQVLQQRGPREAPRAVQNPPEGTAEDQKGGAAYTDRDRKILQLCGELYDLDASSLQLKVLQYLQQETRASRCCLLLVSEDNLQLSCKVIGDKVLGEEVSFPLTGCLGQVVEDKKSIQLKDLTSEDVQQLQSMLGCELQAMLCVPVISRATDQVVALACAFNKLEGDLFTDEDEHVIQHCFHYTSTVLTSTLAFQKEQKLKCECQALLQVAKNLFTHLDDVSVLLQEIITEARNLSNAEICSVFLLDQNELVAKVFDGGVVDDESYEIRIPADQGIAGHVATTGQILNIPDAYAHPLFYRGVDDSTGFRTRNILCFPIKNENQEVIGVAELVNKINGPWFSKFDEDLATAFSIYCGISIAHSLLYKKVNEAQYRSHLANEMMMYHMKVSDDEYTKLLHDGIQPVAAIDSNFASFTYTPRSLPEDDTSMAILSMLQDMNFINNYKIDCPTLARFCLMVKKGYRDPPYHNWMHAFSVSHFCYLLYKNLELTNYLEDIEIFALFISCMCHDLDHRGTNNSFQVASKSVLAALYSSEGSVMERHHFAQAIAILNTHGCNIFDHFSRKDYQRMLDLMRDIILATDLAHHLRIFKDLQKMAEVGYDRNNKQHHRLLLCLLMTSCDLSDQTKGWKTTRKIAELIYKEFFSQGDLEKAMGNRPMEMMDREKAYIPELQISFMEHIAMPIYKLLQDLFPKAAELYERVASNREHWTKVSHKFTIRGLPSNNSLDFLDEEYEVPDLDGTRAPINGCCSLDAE

Turning to `Fc1cc(C2(Nc3cc(C(F)F)cc4ncnn34)CC2)ccc1C(F)(F)F` [Example 274, 7-(Difluoromethyl)-N-(1-(3-fluoro-4-(trifluoromethy)phenyl)cyclopropyl)-[1,2,4]triazol-[1,5-a]pyridin-5-amine], the Ki came out at 11 nM.

Consider `COc1cc(N[C@@H](c2ccc(C(F)(F)F)c(F)c2)C(C)(C)O)n2ncnc2n1` (single isomer, unassigned) [Example 237], for which the Ki is 1690 nM.

Take `Cc1cc(NC(c2ccc(OC(F)(F)F)cc2F)C(C)(C)O)n2nc(C)nc2n1` (single isomer, unassigned) [Example 135, (1R or S)-1-[(2,5-Dimethyl[1,2,4]triazolo[1,5-a]pyrimidin-7-yl)amino]-1-[2-fluoro-4-(tri-fluoromethoxy)phenyl]-2-methylpropan-2-ol]: the Ki is 30 nM.

Consider `CC(C)(C)c1cc(NC(c2ccc(C(F)(F)F)cc2)C(C)(C)O)n2ncnc2n1` (stereo in doubt) [Example 158, (1S)-1-[(5-tert-Butyl[1,2,4]triazolo[1,5-a]pyrimidin-7-yl)amino]-2-methyl-1-[4-(trifluoromethyl)phenyl]propan-2-ol], for which the Ki is about 2340 nM.

`CC(C)(O)C(Nc1cc(C(F)(F)F)nc2ncnn12)c1ccc2c(c1)OC(F)(F)O2` (single isomer, unassigned) [Example 167, (1S or R)-1-(2,2-Difluoro-1,3-benzodioxol-5-yl)-2-methyl-1-{[5-(trifluoromethyl) [1,2,4]triazolo [1,5-a]pyrimidin-7-yl]amino} propan-2-ol]: the Ki was determined as 184 nM.

`Cc1cc(NC(c2ccc3ccccc3c2)C(C)(C)O)n2ncnc2n1` (single isomer, unassigned) [Example 123, (1R or S)-2-Methyl-1-[(5-methyl [1,2,4]triazolo [1,5-a]pyrimidin-7-yl)amino]-1-naphthalen-2-yl propan-2-ol]: the Ki is 35 nM.

As to `Cc1cc(N[C@@H](c2ccc(OC(F)F)cc2)C(C)(C)C)n2ncnc2n1` [Example 33, N-{(1R)-1-[4-(Difluoromethoxy)phenyl]-2,2-dimethylpropyl}-5-methyl[1,2,4]triazolo[1,5-a] pyrimidin-7-amine], the Ki was determined as 17 nM.

As for `CC(C)(C)c1cc(NC(c2ccc(OC(F)(F)F)cc2F)C(C)(C)O)n2ncnc2n1` (single isomer, unassigned) [Example 148, (1S or R)-1-[(5-tert-butyl[1,2,4]triazolo[1,5-a]pyrimidin-7-yl)amino]-1-[2-fluoro-4-(trifluoro-methoxy)phenyl]-2-methylpropan-2-ol], the Ki is over 2960 nM.

For the molecule `Cc1cc(NC(c2ccc(C(F)(F)F)nc2)C(C)(C)O)n2ncnc2n1` (single isomer, unassigned) [Example 225, (R)- or (S)-2-Methyl-1-(5-methyl-[1,2,4]triazolo [1,5-a]pyrimidin-7-ylamino)-1-(6-(trifluoromethyl)pyridin-3-yl) propan-2-ol], the Ki amounted to 258 nM.

As for `Cc1cc(NC2(c3ccc(SC(F)(F)F)c(F)c3)CC2)n2ncnc2n1` [Example 63, N-(1-{3-Fluoro-4-[(trifluoromethyl)sulfanyl]phenyl}cyclopropyl)-5-methyl[1,2,4]triazolo[1,5-a] pyrimidin-7-amine], the Ki came out at 33 nM.

Take `CC(C)(O)C(Nc1cc(C(F)(F)F)nc2ncnn12)c1ccc(SC(F)(F)F)cc1` (single isomer, unassigned) [Example 222, (S)- or (R)-2-Methyl-1-(5-(trifluoromethyl)-[1,2,4]triazolo [1,5-a]pyrimidin-7-ylamino)-1-(4-(trifluoromethylthio)phenyl)propan-2-ol]: the Ki was found to be 4.4 nM.

With `COc1cc(N[C@@H](c2ccc(C(F)(F)F)c(F)c2)C(C)(C)C)n2ncnc2n1` [Example 233, (R)—N-(1-(3-Fluoro-4-(trifluoromethyl)phenyl)-2,2-dimethylpropyl)-5-methoxy-[1,2,4]triazolo[1,5-a]pyrimidin-7-amine], the Ki worked out at 256 nM.

With `CNc1cc(N[C@@H](c2ccc(C(F)(F)F)c(F)c2)C(C)(C)C)n2ncnc2n1` [Example 241, (R)-N^7-(1-(3-Fluoro-4-(trifluoromethyl)phenyl)-2,2-dimethylpropyl)-N^5-methyl-[1,2,4]triazolo [1,5-a]pyrimidine-5,7-diamine], the Ki amounted to 375 nM.

In the case of `Cc1cc(N[C@@H](CC(C)(C)O)c2ccc(C(F)(F)F)c(F)c2)n2ncnc2n1` [Example 153, (4S)-4-[3-Fluoro-4-(trifluoromethyl)phenyl]-2-methyl-4-[(5-methyl[1,2,4]triazolo[1,5-a]pyrimidin-7-yl)amino]butan-2-ol], the Ki is over 2960 nM.

Consider `CC[C@@H](Nc1cc(CO)cc2ncnn12)c1ccc(C(F)(F)F)c(F)c1` [Example 269, [5-({(1R)-1-[3-Fluoro-4-(trifluoromethyl)phenyl]propyl}amino)[1,2,4]triazolo [1,5-a]pyridin-7-yl] methanol], for which the Ki was 181 nM.

As to `Cc1cc(N[C@@H](c2ccc(OC(F)(F)F)c(F)c2)C(C)(C)C)n2ncnc2n1` [Example 28, N-{(1R)-1-[3-Fluoro-4-(trifluoromethoxy)phenyl]-2,2-dimethylpropyl}-5-methyl[1,2,4]triazolo[1,5-a] pyrimidin-7-amine], the Ki is 7.1 nM.

On to `Cc1cc(N[C@H](C)c2ccc(CC(F)(F)F)cc2)n2ncnc2n1` [Example 4, 5-Methyl-N-{(1R)-1-[4-(2,2,2-trifluoroethyl)phenyl]ethyl}[1,2,4] triazolo[1,5-a]pyrimidin-7-amine], for which the Ki was determined as 108 nM.

As to `CC(C)(O)C(Nc1cc(C(F)(F)F)nc2ncnn12)c1ccc(OC(F)(F)F)c(F)c1` (single isomer, unassigned) [Example 175, (1S or R)-1-[3-Fluoro-4-(trifluoromethoxy)phenyl]-2-methyl-1-{[5-(trifluoromethyl) [1,2,4]triazolo [1,5-a]pyrimidin-7-yl]amino} propan-2-ol], the Ki was determined as 14 nM.

In the case of `Cc1cc(N[C@H](c2ccc(OC(F)(F)F)c(F)c2)C(C)(C)O)n2ncnc2n1` (single isomer, unassigned) [Example 91], the inhibitory constant (Ki) is over 2960 nM.

Consider `Cc1cc(N[C@@H](c2ccc(F)c(OC(F)(F)F)c2)C(C)(C)O)n2ncnc2n1` [Example 130, (1S)-1-[4-Fluoro-3-(trifluoro-methoxy)phenyl]-2-methyl-1-[(5-methyl[1,2,4]triazolo[1,5-a]pyrimidin-7-yl)amino]propan-2-ol], for which the Ki was 2290 nM.

For `CCc1nc2nc(C)cc(N[C@@H](c3ccc(C(F)(F)F)c(F)c3)C(C)(C)C)n2n1` [Example 203, (R)-2-Ethyl-N-(1-(3-fluoro-4-(trifluoromethyl)phenyl)-2,2-dimethylpropyl)-5-methyl-[1,2,4]triazolo [1,5-a]pyrimidin-7-amine], the Ki was determined as 33 nM.

In the case of `CC(C)(O)[C@@H](Nc1cc(C(F)(F)F)nc2ncnn12)c1ccc(S(F)(F)(F)(F)F)cc1` (single isomer, unassigned) [Example 177], the Ki came to 8.4 nM.

`Cc1cc(NC(C)(C)c2ccc(C(F)(F)F)cc2C)n2ncnc2n1` [Example 54, 5-Methyl-N-{1-methyl-1-[2-methyl-4-(trifluoromethyl)phenyl]ethyl}[1,2,4]triazolo[1,5-a] pyrimidin-7-amine]: the Ki is 342 nM.

As for `CC(C)(O)C(Nc1cc(C(F)(F)F)nc2ncnn12)c1ccc(CC(F)(F)F)cc1` (single isomer, unassigned) [Example 170, (1R or S)-2-Methyl-1-[4-(2,2,2-trifluoroethyl)phenyl]-1-{[5-(trifluoromethyl) [1,2,4]triazolo [1,5-a]pyrimidin-7-yl]amino} propan-2-ol], the Ki is over 2960 nM.

For `CC(C)(O)C(Nc1cc(C(F)F)nc2ncnn12)c1ccc(OC(F)F)cc1F` (single isomer, unassigned) [Example 181], the Ki came out at 32 nM.

As for `Cc1cc(NC(c2ccc(C(F)(F)F)cn2)C(C)C)n2ncnc2n1` (single isomer, unassigned) [Example 211, (R)- or (S)-5-Methyl-N-(2-methyl-1-(5-(trifluoromethyl)pyridin-2-yl)propyl)-[1,2,4] triazolo[1,5-a] pyrimidin-7-amine], the Ki was about 2480 nM.

As for `CC(C)(O)C(Nc1cc(C2CC2)nc2ncnn12)c1ccc(OC(F)(F)F)cc1F` (single isomer, unassigned) [Example 142, (1S or R)-1-[(5- Cyclopropyl [1,2,4]triazolo [1,5-a]pyrimidin-7-yl)amino]-1-[2-fluoro-4-(trifluoro-methoxy)phenyl]-2-methylpropan-2-ol], the Ki is over 2960 nM.

On to `Cc1cc(N[C@@H](c2ccc(C(F)(F)F)cc2F)C(C)(C)C)n2ncnc2n1` [Example 34, N-{(1R)-1-[2-Fluoro-4-(trifluoromethyl)phenyl]-2,2-dimethylpropyl}-5-methyl[1,2,4]triazolo[1,5-a] pyrimidin-7-amine], for which the Ki was 15 nM.

Regarding `CC(C)(C)c1cc(NC(c2ccc(OC(F)(F)F)c(F)c2)C(C)(C)O)n2ncnc2n1` (single isomer, unassigned) [Example 147, (1R or S)-1-[(5-tert-Butyl[1,2,4]triazolo[1,5-a]pyrimidin-7-yl)amino]-1-[3-fluoro-4-(trifluoro-methoxy)phenyl]-2-methylpropan-2-ol], the Ki is over 2960 nM.

With `Cc1cc(NC(c2cc3ccccc3n2C)C(C)(C)O)n2ncnc2n1` (single isomer, unassigned) [Example 124, (1S or R)-2-Methyl-1-(1-methyl-1H-indol-2-yl)-1-[(5-methyl [1,2,4]triazolo [1,5-a]pyrimidin-7-yl)amino] propan-2-ol], the Ki turned out to be 79 nM.

As to `Cc1cc(N[C@@H](C)c2ccc(C(F)(F)F)cc2)n2ncnc2n1` [Example 2, 5-Methyl-N-{(1S)-1-[4-(trifluoromethyl)phenyl]ethyl}[1,2,4]triazolo[1,5-a]pyrimidin-7-amine], the Ki was about 1540 nM.
